Measured values published in patent EP3838286B1, “ANTIMICROBIAL PEPTIDE FROM POLISTES GALLICUS VENOM AND ITS ANALOGS” (Latoxan, priority 2019, dated 2021).
In brackets after ≈: the same amount, converted by molar mass. Where two headings read alike, the source gives them in different places. Square brackets hold non-standard residues; d marks the D form. Peptide text beside a SMILES is read from it.

What was measured:
B. subtilis = test: Selection for resistant bacteria (serial passaging); assay type: cell-based; conditions: daily exposure at sub-MIC levels, 30 days; antibiotic: after 10 days
Method: To evaluate if populations of AMP-resistant bacteria could be selected, cultures were continuously exposed to LTX-gallicune-1 (I1N1) and LTX-gallicune-2(R1W8) peptides for a duration of 30 days, as previously described (Oyama et al., 2017 Biofilms Microbiomes, Dec 1;3:33). Briefly, broth microdilution susceptibility testing was performed using a standard doubling-dilution series of gallicune peptides concentrations on day 1. Following incubation of the cultures for 24 h, and determination of the MIC, the well that contained the highest concentration of AMPs permitting growth was diluted 1: 1000 in MH and used to provide the inoculum for the next MIC assay; this process was repeated daily for 30 days.

MDA-MB-231 [1] = test: Antitumor / antiproliferative activity (resazurin); assay type: cell-based; conditions: Homo sapiens, breast cancer cells, 5,000 cells/well, 48 h, read-out: IC50 antiproliferative effect MDA-MB-231
Method: (§1) Human cancer cell lines (Mia PaCa-2 (CRL-1420), PC-3 (CRL-1435), MDA-MB-231 (HTB-26)) and normal lung fibrobasts (BEAS-2B (ATCC CRL-9609) and IMR-90 (ATCC CCL-186)) were obtained from American Type Culture Collection (ATCC). HUVEC cells were obtained from Sigma Aldrich and were grown in defined all-in-one ready to use endothelial cell growth medium (Sigma Aldrich). Other cells were cultured in Dulbecco's modified Eagle's medium (DMEM, Gibco Life Technologies) supplemented with 10% heat-inactivated fetal calf serum (FCS, Lonza) at 37 °C in an incubator containing 5% CO2. Cells were sub-cultured in new media every 3-4 days. Antiproliferative / antitumor effects of the peptides were measured as previously described (Borie et al., Eur J Med Chem. 2018;148:306-313). Briefly, cells were detached from growing flask using trypsin, cells were counted and seeded in 96 well-plates in the growth media at an initial cell density of 5000 cells/well. Cells were left for 4 h to attach to the wells. Cells were then treated with increasing concentrations of peptides diluted in culture media. After 48 h incubation at 37 °C in a 5% CO2 incubator, wells were emptied and cell number was evaluated using Resazurin based in vitro toxicity assay kit (from Sigma-Aldrich) following manufacturer's instructions. Briefly, Resazurin stock solution was diluted 1:10 in sterile PBS containing calcium and magnesium (PBS, pH 7.4) and empty wells were filled with 100 µL of the diluted solution. After 4 h incubation at 37 °C, fluorescence intensity was measured using microplate reader (Synergy Mx, Biotek) with an excitation wavelength of 530 nm and an emission wavelength of 590 nm. The fluorescence values were normalized by the controls (buffer treated cells) and expressed as per-cent viability. […]

PC-3 [2] = test: Antitumor / antiproliferative activity (resazurin); assay type: cell-based; conditions: Homo sapiens, prostate cancer cells, 5,000 cells/well, 48 h, read-out: IC50 antiproliferative effect PC-3
Method: as §1

MiaPaCa-2 [3] = test: Antitumor / antiproliferative activity (resazurin); assay type: cell-based; conditions: Homo sapiens, MIA PaCa-2; pancreas cancer cells; 5,000 cells/well; 48 h; read-out: IC50 antiproliferative effect MiaPaCa-2
Method: as §1

[4] = tested on: B. subtilis (Nisin-resistant)
M. smegmatis = conditions: 72 h
[5] = Cytotoxicity assay (resazurin); assay type: cell-based; conditions: human
Method: Normal human cells used were BEAS-2B (ATCC CRL-9609), IMR-90 (ATCC CCL-186) and Human Umbilical Vein Endothelial Cells (HUVEC) (from Sigma-Aldrich) corresponding respectively to human normal lung epithelial, normal lung fibroblast cells and human normal endothelial cells. All cells except HUVEC cells were cultured in Dulbecco's modified essential medium (DMEM) supplemented with 10% fetal calf serum (FCS), 1% L-glutamine and 1% antibiotics (all from Invitrogen). HUVEC cells were cultured in specific endothelial media (from Sigma Aldrich). Cells were seeded onto […] maintained in a 5% CO2 incubator at 37 °C. Cells grown on 25 cm^2 flasks were detached using trypsin-EDTA solution (from Thermofisher), counted using Mallassez counting chamber and seeded into 96-well cell culture plates (Greiner bio-one) at approximately 10,000 cells per well. The cells were left to grow for 48-72 h at 37 °C in a 5% CO2 incubator until they reached confluence. Plates were then aspirated and increasing concentrations of peptides diluted in culture media were added to the cells for 48 h at 37 °C in a 5% CO2 incubator. At the end of the incubation, wells were emptied and cell viability was evaluated using Resazurin based in vitro toxicity assay kit (from Sigma-Aldrich) following manufacturer's instructions. Briefly, Resazurin stock solution was diluted 1:10 in sterile PBS containing calcium and magnesium (PBS, pH 7.4) and empty wells were filled with 100 µL of the diluted solution. After 4 h incubation at 37 °C, fluorescence intensity was measured using microplate reader (Synergy Mx, Biotek) with an excitation wavelength of 530 nm and an emission wavelength of 590 nm. The fluorescence values were normalized by the controls (buffer treated cells) and expressed as percent viability. The IC50 values of peptides on cell viability (i.e. the concentration of derivative causing a reduction of 50% of cell viability) were determined using GraphPad® Prism 7 software. t-Test and two way ANOVA analyses were used to address the significant differences between mean values with significance set at p < 0.05.

MDA-MB-231 [6] = test: Antitumor / antiproliferative activity (resazurin); assay type: cell-based, human; conditions: breast cancer cells; 5,000 cells/well; 48 h; read-out: IC50 antiproliferative effect MDA-MB-231
Method: (§2) Human cancer cell lines (Mia PaCa-2 (CRL-1420), PC-3 (CRL-1435), MDA-MB-231 (HTB-26)) and normal lung fibrobasts (BEAS-2B (ATCC CRL-9609) and IMR-90 (ATCC CCL-186)) were obtained from American Type Culture Collection (ATCC). HUVEC cells were obtained from Sigma Aldrich and were grown in defined all-in-one ready to use endothelial cell growth medium (Sigma Aldrich). Other cells were cultured in Dulbecco's modified Eagle's medium (DMEM, Gibco Life Technologies) supplemented with 10% heat-inactivated fetal calf serum (FCS, Lonza) at 37 °C in an incubator containing 5% CO2. Cells were sub-cultured in new media every 3-4 days. Antiproliferative / antitumor effects of the peptides were measured as previously described (Borie et al., Eur J Med Chem. 2018;148:306-313). Briefly, cells were detached from growing flask using trypsin, cells were counted and seeded in 96 well-plates in the growth media at an initial cell density of 5000 cells/well. Cells were left for 4 h to attach to the wells. Cells were then treated with increasing concentrations of peptides diluted in culture media. After 48 h incubation at 37 °C in a 5% CO2 incubator, wells were emptied and cell number was evaluated using Resazurin based in vitro toxicity assay kit (from Sigma-Aldrich) following manufacturer's instructions. Briefly, Resazurin stock solution was diluted 1:10 in sterile PBS containing calcium and magnesium (PBS, pH 7.4) and empty wells were filled with 100 µL of the diluted solution. After 4 h incubation at 37 °C, fluorescence intensity was measured using microplate reader (Synergy Mx, Biotek) with an excitation wavelength of 530 nm and an emission wavelength of 590 nm. The fluorescence values were normalized by the controls (buffer treated cells) and expressed as per-cent viability. The IC50 values of peptides on cell division / proliferation (i.e. the concentration of derivative causing a reduction of 50% of cell division) were determined using GraphPad ® Prism 7 software. t-Test and two way ANOVA analyses were used to address the significant differences between mean values with significance set at p < 0.05.

PC-3 [7] = test: Antitumor / antiproliferative activity (resazurin); assay type: cell-based, human; conditions: prostate cancer cells; 5,000 cells/well; 48 h; read-out: IC50 antiproliferative effect PC-3
Method: as §2

MiaPaCa-2 [8] = test: Antitumor / antiproliferative activity (resazurin); assay type: cell-based, human; conditions: pancreas cancer cells; 5,000 cells/well; 48 h; read-out: IC50 antiproliferative effect MiaPaCa-2
Method: as §2

Pseudomonas aeruginosa = test: Stability of the peptides to proteases and human serum (MIC of digested peptides); assay type: in vitro ADME; conditions: against Pseudomonas aeruginosa
Method: In order to evaluate the stability of the peptides to condition they will face in vivo, their resistance to proteases and human serum was evaluated (Oyama et al., 2017 Biofilms Microbiomes, Dec 1;3:33). Briefly, one volume of peptides (at 1 mM) was diluted in one volume of proteases (Pepsin, Trypsin, Chymotrypsin, Papain all from Sigma Aldrich and diluted at 2 mg/ml in HCl 10 mM pH2 for Pepsin, PBS pH 7 for Trypsin and Chymotrysin and PBS pH 6 for Papain) or human serum (Sigma Aldrich H4522). Peptides incubated in the same conditions in PBS were used as controls. After 4 h (for proteases) and 4 or 24 h (for human serum) of incubation at 37°C, PMSF was added to the reaction mixture at a final concentration of 100 µM to stop the digestion. MIC of the digested peptides were then determined as explained above.

## C/C(=C\C(=O)OCCCCCCCCC(=O)O)C[C@@H]1OC[C@H](C[C@@H]2O[C@H]2[C@@H](C)[C@H](C)O)[C@@H](O)[C@H]1O [Mupirocin]
B. subtilis
  change of MIC against B. subtilis on serial passaging (resistance acquisition): increasing

## COc1cccc2c1C(=O)c1c(O)c3c(c(O)c1C2=O)C[C@@](O)(C(=O)CO)C[C@@H]3O[C@H]1C[C@H](N)[C@H](O)[C@H](C)O1 [Doxo, Doxorubicine]
MDA-MB-231 [1]
  IC50: 0.0798 µM
PC-3 [2]
  IC50: 0.315 µM
MiaPaCa-2 [3]
  IC50: 0.19 µM

## CC[C@@H](C)[C@@H](N)C(=O)N[C@@H](CC(C)C)C(=O)N[C@@H](CCCCN)C(=O)N[C@@H](C)C(=O)N[C@H](C(=O)N[C@@H](CCCCN)C(=O)N[C@@H](CCCCN)C(=O)N[C@@H](CC(C)C)C(=O)N[C@@H](CC(C)C)C(=O)N[C@@H](CCCCN)C(=O)N[C@H](CC(N)=O)C(N)=O)[C@@H](C)CC [LTX-gallicune-1(i1D-n11D)] (H-[dI]LKAIKKLLK[dN]-NH2)
S. enterica
  MBC (µM) S. enterica: 25 µM (≈ 32 µg/mL)
  MIC (µM) S. enterica: 25 µM (≈ 32 µg/mL)
H. pylori
  MBC (µM) H. pylori: 25 µM (≈ 32 µg/mL)
  MIC (µM) H. pylori: 25 µM (≈ 32 µg/mL)
A. gandavensis
  MBC (µM) A. gandavensis: 1.5 µM (≈ 1.92 µg/mL)
  MIC (µM) A. gandavensis: 1.5 µM (≈ 1.92 µg/mL)
[4]
  MBC (µM) B. subtilis (Nisin-resistant): 6.25 µM (≈ 8 µg/mL)
  MIC (µM) B. subtilis (Nisin-resistant): 6.25 µM (≈ 8 µg/mL)
C. rodentium
  MBC (µM) C. rodentium: 25 µM (≈ 32 µg/mL)
  MIC (µM) C. rodentium: 25 µM (≈ 32 µg/mL)
C. farmeri
  MBC (µM) C. farmeri: 12.5 µM (≈ 16 µg/mL)
  MIC (µM) C. farmeri: 6.25 µM (≈ 8 µg/mL)
M. smegmatis
  MIC (µM) M. smegmatis: 25 µM (≈ 32 µg/mL)
P. aeruginosa 01
  MBC (µM) P. aeruginosa 01: 12.5 µM (≈ 16 µg/mL)
  MIC (µM) P. aeruginosa 01: 6.25 µM (≈ 8 µg/mL)
[5]; BEAS-2B normal lung epithelial cells, normal lung epithelium, read-out: Cytotoxicity IC50 (µM) BEAS
  CC50 at 48 h: 391 µM
[5]; HUVEC (human umbilical vein endothelial cells), normal endothelium, read-out: Cytotoxicity IC50 (µM) HUVEC
  CC50 at 48 h: 436 µM
[5]; IMR-90 normal lung fibroblast cells, read-out: Cytotoxicity IC50 (µM) IMR90
  CC50 at 48 h: 362 µM
MDA-MB-231 [6]
  IC50: 75.6 µM
PC-3 [7]
  IC50: 32.3 µM
MiaPaCa-2 [8]
  IC50: 4.61 µM
P. aeruginosa FQR
  MBC (µM) P. aeruginosa FQR: 25 µM (≈ 32 µg/mL)
  MIC (µM) P. aeruginosa FQR: 6.25 to 12.5 µM
P. aeruginosa
  MBC (µM) P. aeruginosa: 1.5 µM (≈ 1.92 µg/mL)
  MIC (µM) P. aeruginosa: 1.5 µM (≈ 1.92 µg/mL)
  MIC PA: 1.5 µM (≈ 1.92 µg/mL)
E. coli EHEC K88
  MBC (µM) E. coli EHEC K88: 50 µM (≈ 64 µg/mL)
  MIC (µM) E. coli EHEC K88: 25 µM (≈ 32 µg/mL)
Pseudomonas aeruginosa; after 4 h at 37°C in human serum
  MIC (µM) Serum4h: >50 µM
Pseudomonas aeruginosa; after 4 h at 37°C with chymotrypsin, pH 7
  MIC (µM) Chymotrypsin: >50 µM
Pseudomonas aeruginosa; after 4 h at 37°C with pepsin, pH2
  MIC (µM) Pepsin: >50 µM
Pseudomonas aeruginosa; after 4 h at 37°C with trypsin, pH 7
  MIC (µM) Trypsin: >50 µM
Pseudomonas aeruginosa; after 24 h at 37°C in human serum
  MIC (µM) Serum24h: 25 µM
Pseudomonas aeruginosa; peptide incubated in PBS, not treated with proteases
  MIC (µM) Control: 3.125 µM
V. alginolyticus
  MBC (µM) V. alginolyticus: 0.78 µM (≈ 0.999 µg/mL)
  MIC (µM) V. alginolyticus: 0.78 µM (≈ 0.999 µg/mL)
L. lactis
  MBC (µM) L. lactis: 0.78 µM (≈ 0.999 µg/mL)
  MIC (µM) L. lactis: 1.5 µM (≈ 1.92 µg/mL)
S. flexneri
  MBC (µM) S. flexneri: 12.5 µM (≈ 16 µg/mL)
  MIC (µM) S. flexneri: 12.5 µM (≈ 16 µg/mL)
A.baumani
  MIC (µM) A.baumani: 12.5 µM (≈ 16 µg/mL)
